From patent US20220167645A1, “METHODS OF IMPROVING FISH FEED CONVERSION RATE AND SURVIVAL” (AQUINOVO LTD., priority 2019, published 2022)
Numbered stars: 1 amine (or outer) side, 2 acyl side, 3 side chain; on linkers, the order of the positions; unused ones are H or OH. Square brackets hold non-standard residues; d marks the D form. Suc = O=C(CCC(=O)[*:2])[*:1]; NMeV = CN[C@H](C(=O)O)C(C)C; βAla = NCCC(=O)O

Tested on: Tilapia fish
Assay: Experiment #3: tilapia fed AN6-coated feed, treatment schedules 1 to 8 (survival, weight, length, size distribution, FCR)
Type: in vivo
Conditions: for Average weight/fish (g) / Total weight/cage (g) / Average FCR/cage / Average density (body/cage) / Average weight gain/fish (g): D 236 to D 279, % change relative to control; for % big fish (Big fish 279 dph >1000 g) / % small fish (Small fish 279 dph >476 g) / Δ Treatment - Control (%) big fish (>1000 g) / Δ Treatment - Control (%) small fish (>476 g) / Big fish # (Big fish 279 dph >1000 g) / Small fish # (Small fish 279 dph): 279 dph
Protocol: The following fish feed was used in this experiment: MeM (powder, manufactured by Bern Aqua), Nanolis P1, P2 (pellet sizes of 1 mm, 1.2-1.5 mm, respectively, manufactured by Ocialis) and Tilaphi 2, 3 & 4 (pellet sizes of 2 mm, 3-4 mm & 5.5 mm manufactured by Ocialis). The feed content is in described in Table 4.
Feed was coated using the following general procedure: Different amounts of the peptide AN6 (SEQ ID NO: 6) were prepared by dissolving the peptide in Tris-HCl solution (50 mM, pH=8.8) in ratio of 15 mg peptide to 1.25 ml Tris-HCl solution. Then, each of the various solutions was mixed with 3 Kg of the basic feed pellets (depending on fish size) using an electric mixer. The peptide-feed mixtures where then dried either in oven at 40° C. for 24 hours or in drying drum (at room temperature) for few hours to form coated pellets.
Tilapia fish (n=4800) were raised from day 10 (0.05 g) post-hatch (dph) in indoor tanks and then transferred to outdoor cages in ponds (40-279 dph). Each cage/tank is an experimental unit. The fish were fed to apparent satiation 2-4 times a day with feed appropriate to their age and treatment as described in Table 5.
The trial included total 48 cages representing 8 treatments, with 6 repeats each. Each cage contained about 100 fish. […] Fed to fish throughout the entire growth-trial period (for 279 days); • Treatment 2 (5 ppm from 10 dph for 120 days): The control diet with the addition of 5 mg peptide/kg of diet (Feed F). Fish were fed the peptide enriched diet for 120 days (4 months), from 10 days of age (D0—the first day of the experiment) to 130 days of age (D120), and the control diet during the last 6 months (159 days) (Feed E); • Treatment 3 (10 ppm from 10 dph for 60 days): The control diet with the addition of 10 mg peptide/kg of diet (Feed G). […] Fish were fed the peptide enriched diet for 90 days (3 months) from 10 days of age (D0) to 100 days of age (D90) and the control diet for the last 7 months (189 days) (Feed E); • Treatment 5 (10 ppm from 10 dph for 120 days): The control diet with the addition of 10 mg peptide/kg of diet (Feed G). Fish were fed the peptide enriched diet for 120 days (4 months) from 10 days of age (D0) to 130 days of age (D120) and the control diet for the last 6 months (159 days) (Feed E); • Treatment 6 (10 ppm from 100 dph for 30 days): The control diet with the addition of 10 mg peptide/kg of diet (Feed G). Fish were fed the peptide enriched diet for 30 days (1 month) from 100 days of age (D90) to 130 days of age (D120) and the control diet for the first three months (90 days from D0 to D90) and the last 6 months (159 days) (Feed E); • Treatment 7 (30 ppm from 10 dph for 60 days): The control diet with the addition of 30 mg peptide/kg of diet (Feed H). Fish were fed the peptide enriched diet for 60 days (2 months) from 10 days of age (D0) to 70 days of age (D60), and the control diet during the last 8 months (219 days) (Feed E); • Treatment 8 (30 ppm from 10 dph for 90 days): The control diet with the addition of 30 mg peptide/kg of diet (Feed H). Fish were fed the peptide enriched diet for 90 days (3 months) from 10 days of age (D0) to 100 days of age (D90) and the control diet for the last 7 months (189 days) (Feed E).
During the experimental period, fish weight and length were measured once a month. Individual fish sex was determined at days 96 and 279 of the experiment. Average fish weight per cage were calculated for each measurement period (FIG. 8). […] Between two weight measurements, average weight gain (FIG. 9A) and daily growth rates (FIG. 9B) were calculated by subtracting the average weight at the beginning and end of the measuring period and dividing by the number of days between.
In order to determine the efficiency of feed conversion into fish substance in experiments (#1, #2, #3), FCR values which reflect the amount of feed needed to grow a kilogram fish, were calculated for each period and for the entire fish growth period. […]

[1] = Treatment 5 (10 ppm from 10 dph for 120 days)
[2] = Treatment 5 (10 ppm from 10 dph for 120 days), female fish, D 96
[3] = Treatment 5 (10 ppm from 10 dph for 120 days), female fish, D 279
[4] = Treatment 5 (10 ppm from 10 dph for 120 days), male fish, D 96
[5] = Treatment 5 (10 ppm from 10 dph for 120 days), male fish, D 279
[6] = Treatment 6 (10 ppm from 100 dph for 30 days)
[7] = Treatment 6 (10 ppm from 100 dph for 30 days), of 442 fish
[8] = Treatment 6 (10 ppm from 100 dph for 30 days), female fish, D 96
[9] = Treatment 6 (10 ppm from 100 dph for 30 days), female fish, D 279
[10] = Treatment 6 (10 ppm from 100 dph for 30 days), male fish, D 96
[11] = Treatment 6 (10 ppm from 100 dph for 30 days), male fish, D 279
[12] = Treatment 7 (30 ppm from 10 dph for 60 days)
[13] = Treatment 7 (30 ppm from 10 dph for 60 days), of 427 fish
[14] = Treatment 7 (30 ppm from 10 dph for 60 days), female fish, D 96
[15] = Treatment 7 (30 ppm from 10 dph for 60 days), female fish, D 279
[16] = Treatment 7 (30 ppm from 10 dph for 60 days), male fish, D 96
[17] = Treatment 7 (30 ppm from 10 dph for 60 days), male fish, D 279
[18] = Treatment 8 (30 ppm from 10 dph for 90 days)
[19] = Treatment 8 (30 ppm from 10 dph for 90 days), of 446 fish
[20] = Treatment 8 (30 ppm from 10 dph for 90 days), female fish, D 96
[21] = Treatment 8 (30 ppm from 10 dph for 90 days), female fish, D 279
[22] = Treatment 8 (30 ppm from 10 dph for 90 days), male fish, D 96
[23] = Treatment 8 (30 ppm from 10 dph for 90 days), male fish, D 279

For “Succ-Asp-Ser- D-Trp -N(Me)Val-βAla-Leu-Met-NH2 (Suc-DS[dW][NMeV][βAla]LM-NH2; SMILES CSCC[C@H](NC(=O)[C@H](CC(C)C)NC(=O)CCNC(=O)[C@H](C(C)C)N(C)C(=O)[C@@H](Cc1c[nH]c2ccccc12)NC(=O)[C@H](CO)NC(=O)[C@H](CC(=O)O)NC(=O)CCC(=O)O)C(N)=O) [AN6]”, the “Average weight/fish (g)” value [1] was 3.29%, the “Total weight/cage (g)” value [1] was 1.28% and the “Length/fish (cm) Mean” value [2] was 15.95 cm. For the same substance, the “Weight/fish (g) Mean” value [2] was 82.96 g, the “Δ Mean % (Treatment vs. control) Length/fish” value [2] was 1.01% and the “Δ Mean % (Treatment vs. control) Weight/fish” value [2] was 0.90%. For the same substance, the “Length/fish (cm) Mean” value [3] was 30.33 cm, the “Weight/fish (g) Mean” value [3] was 611.23 g and the “Δ Mean % (Treatment vs. control) Length/fish” value [3] was 0.66%. For the same substance, the “Δ Mean % (Treatment vs. control) Weight/fish” value [3] was 1.55%, the “Length/fish (cm) Mean” value [4] was 17.08 cm and the “Weight/fish (g) Mean” value [4] was 100.46 g. The “Δ Mean % (Treatment vs. control) Length/fish” value [4] was −0.81%, the “Δ Mean % (Treatment vs. control) Weight/fish” value [4] was −4.78% and the “Length/fish (cm) Mean” value [5] was 34.21 cm. For the same substance, the “Weight/fish (g) Mean” value [5] was 859.1 g, the “Δ Mean % (Treatment vs. control) Length/fish” value [5] was −0.49% and the “Δ Mean % (Treatment vs. control) Weight/fish” value [5] was −0.72%. The “% big fish (Big fish 279 dph >1000 g)” value [6] was 12.9%, the “% small fish (Small fish 279 dph >476 g)” value [6] was 6.6% and the “Δ Treatment - Control (%) big fish (>1000 g)” value [6] was 2.7%. The “Δ Treatment - Control (%) small fish (>476 g)” value [6] was −2.6%, the “Big fish # (Big fish 279 dph >1000 g)” value [7] was 57 and the “Small fish # (Small fish 279 dph)” value [7] was 29. For the same substance, the “Average FCR/cage” value [6] was 0.00%, the “Average density (body/cage)” value [6] was −1.55% and the “Average weight gain/fish (g)” value [6] was 2.11%. The “Average weight/fish (g)” value [6] was 0.97%, the “Total weight/cage (g)” value [6] was −0.53% and the “Length/fish (cm) Mean” value [8] was 16.04 cm. The “Weight/fish (g) Mean” value [8] was 87.28 g, the “Δ Mean % (Treatment vs. control) Length/fish” value [8] was 1.58% and the “Δ Mean % (Treatment vs. control) Weight/fish” value [8] was 6.15%. The “Length/fish (cm) Mean” value [9] was 30.45 cm, the “Weight/fish (g) Mean” value [9] was 617.44 g and the “Δ Mean % (Treatment vs. control) Length/fish” value [9] was 1.06%. The “Δ Mean % (Treatment vs. control) Weight/fish” value [9] was 2.58%, the “Length/fish (cm) Mean” value [10] was 17.07 cm and the “Weight/fish (g) Mean” value [10] was 105.78 g. The “Δ Mean % (Treatment vs. control) Length/fish” value [10] was −0.87%, the “Δ Mean % (Treatment vs. control) Weight/fish” value [10] was 0.27% and the “Length/fish (cm) Mean” value [11] was 34.19 cm. For the same substance, the “Weight/fish (g) Mean” value [11] was 863.26 g, the “Δ Mean % (Treatment vs. control) Length/fish” value [11] was −0.55% and the “Δ Mean % (Treatment vs. control) Weight/fish” value [11] was −0.24%. For the same substance, the “% big fish (Big fish 279 dph >1000 g)” value [12] was 10.8%, the “% small fish (Small fish 279 dph >476 g)” value [12] was 5.4% and the “Δ Treatment - Control (%) big fish (>1000 g)” value [12] was 0.5%. For the same substance, the “Δ Treatment - Control (%) small fish (>476 g)” value [12] was −3.7%, the “Big fish # (Big fish 279 dph >1000 g)” value [13] was 46 and the “Small fish # (Small fish 279 dph)” value [13] was 23. The “Average FCR/cage” value [12] was 0.00%, the “Average density (body/cage)” value [12] was −4.89% and the “Average weight gain/fish (g)” value [12] was 1.43%. For the same substance, the “Average weight/fish (g)” value [12] was 1.37%, the “Total weight/cage (g)” value [12] was −4.56% and the “Length/fish (cm) Mean” value [14] was 15.73 cm. The “Weight/fish (g) Mean” value [14] was 82.52 g, the “Δ Mean % (Treatment vs. control) Length/fish” value [14] was −0.38% and the “Δ Mean % (Treatment vs. control) Weight/fish” value [14] was 0.36%. The “Length/fish (cm) Mean” value [15] was 30.53 cm, the “Weight/fish (g) Mean” value [15] was 628.2 g and the “Δ Mean % (Treatment vs. control) Length/fish” value [15] was 1.33%. The “Δ Mean % (Treatment vs. control) Weight/fish” value [15] was 4.37%, the “Length/fish (cm) Mean” value [16] was 17.78 cm and the “Weight/fish (g) Mean” value [16] was 109.68 g. The “Δ Mean % (Treatment vs. control) Length/fish” value [16] was 3.25%, the “Δ Mean % (Treatment vs. control) Weight/fish” value [16] was 3.96% and the “Length/fish (cm) Mean” value [17] was 34.04 cm. For the same substance, the “Weight/fish (g) Mean” value [17] was 840.39 g, the “Δ Mean % (Treatment vs. control) Length/fish” value [17] was −0.99% and the “Δ Mean % (Treatment vs. control) Weight/fish” value [17] was −2.88%. The “% big fish (Big fish 279 dph >1000 g)” value [18] was 20.4%, the “% small fish (Small fish 279 dph >476 g)” value [18] was 5.6% and the “Δ Treatment - Control (%) big fish (>1000 g)” value [18] was 10.2%. For the same substance, the “Δ Treatment - Control (%) small fish (>476 g)” value [18] was −3.5%, the “Big fish # (Big fish 279 dph >1000 g)” value [19] was 91 and the “Small fish # (Small fish 279 dph)” value [19] was 25. The “Average FCR/cage” value [18] was −2.14%, the “Average density (body/cage)” value [18] was −0.67% and the “Average weight gain/fish (g)” value [18] was 13.57%. For the same substance, the “Average weight/fish (g)” value [18] was 7.11%, the “Total weight/cage (g)” value [18] was 6.23% and the “Length/fish (cm) Mean” value [20] was 16.17 cm. For the same substance, the “Weight/fish (g) Mean” value [20] was 89.02 g, the “Δ Mean % (Treatment vs. control) Length/fish” value [20] was 2.41% and the “Δ Mean % (Treatment vs. control) Weight/fish” value [20] was 8.27%. For the same substance, the “Length/fish (cm) Mean” value [21] was 30.65 cm, the “Weight/fish (g) Mean” value [21] was 649.16 g and the “Δ Mean % (Treatment vs. control) Length/fish” value [21] was 1.73%. For the same substance, the “Δ Mean % (Treatment vs. control) Weight/fish” value [21] was 7.85%, the “Length/fish (cm) Mean” value [22] was 17.21 cm and the “Weight/fish (g) Mean” value [22] was 106.64 g. The “Δ Mean % (Treatment vs. control) Length/fish” value [22] was −0.06%, the “Δ Mean % (Treatment vs. control) Weight/fish” value [22] was 1.08% and the “Length/fish (cm) Mean” value [23] was 34.56 cm. For the same substance, the “Weight/fish (g) Mean” value [23] was 912.05 g, the “Δ Mean % (Treatment vs. control) Length/fish” value [23] was 0.52% and the “Δ Mean % (Treatment vs. control) Weight/fish” value [23] was 5.40%. The “average weight of males and females compared to their respective controls” value (differential analysis of male vs female performances) was “improved average weight”.
